Test results as given in the supplement of paper PMC13380429.
Counter-ions that a name gives are not always drawn.

How the values were obtained:
Details in all cases: 72 h
Caco-2 [1] = assay: cell viability relative to DMSO; higher = less toxic
Calu-3 [2] = assay: as above
HepG2 [3] = assay: as above
U2OS [4] = assay: as above
Vero E6 [5] = assay: as above
Caco-2 [6] = assay: relative viability EC50 (midpoint between 100% and the lowest measured viability); higher = less toxic
Calu-3 [7] = assay: as above
HepG2 [8] = assay: as above
Vero E6 [9] = assay: as above
Caco-2 [10] = assay: drug sensitivity score (DSS) for viability; higher = more toxic; extreme values may be limits of the assay
Calu-3 [11] = assay: as above
HepG2 [12] = assay: as above
U2OS [13] = assay: as above
Vero E6 [14] = assay: as above
U2OS [15] = assay: relative viability EC50 (midpoint between 100% and the lowest measured viability); higher = less toxic

Structure (SMILES)	cell viability (Caco-2 [1]; 1 nM)	cell viability (Caco-2 [1]; 10 nM)	cell viability (Caco-2 [1]; 100 nM)	cell viability (Caco-2 [1]; 1000 nM)	cell viability (Caco-2 [1]; 10000 nM)	cell viability (Calu-3 [2]; 1 nM)	cell viability (Calu-3 [2]; 10 nM)	cell viability (Calu-3 [2]; 100 nM)	cell viability (Calu-3 [2]; 1000 nM)	cell viability (Calu-3 [2]; 10000 nM)	cell viability (HepG2 [3]; 1 nM)	cell viability (HepG2 [3]; 10 nM)	cell viability (HepG2 [3]; 100 nM)	cell viability (HepG2 [3]; 1000 nM)	cell viability (HepG2 [3]; 10000 nM)	cell viability (U2OS [4]; 1 nM)	cell viability (U2OS [4]; 10 nM)	cell viability (U2OS [4]; 100 nM)	cell viability (U2OS [4]; 1000 nM)	cell viability (U2OS [4]; 10000 nM)	cell viability (Vero E6 [5]; 1 nM)	cell viability (Vero E6 [5]; 10 nM)	cell viability (Vero E6 [5]; 100 nM)	cell viability (Vero E6 [5]; 1000 nM)	cell viability (Vero E6 [5]; 10000 nM)	relative viability EC50 (Caco-2 [6])	relative viability EC50 (Calu-3 [7])	relative viability EC50 (HepG2 [8])	relative viability EC50 (Vero E6 [9])	drug sensitivity score (Caco-2 [10])	drug sensitivity score (Calu-3 [11])	drug sensitivity score (HepG2 [12])	drug sensitivity score (U2OS [13])	drug sensitivity score (Vero E6 [14])	relative viability EC50 (U2OS [15])
C=CCc1cccc(/C=N/NC(=O)CN2CCN(Cc3ccccc3)CC2)c1O [PAC-1]	98.2%	102%	91.5%	82.3%	8%	89.6%	103%	102%	101%	15.8%	104%	105%	94%	87%	11.5%	97.5%	101%	95.9%	96.6%	50.6%	103%	103%	104%	95.9%	48.7%	1.77 µM	3.25 µM	2 µM	2.52 µM	8	4.6	7.1	3.1	3.3	
CCCCc1nn(-c2ccccc2C(F)(F)F)c(=O)n1Cc1ccc(-c2ccccc2S(=O)(=O)NC(=O)c2sccc2C)cc1	98.6%	110%	102%	100%	94.1%	107%	99.2%	108%	106%	109%	98.8%	115%	111%	108%	102%						104%	106%	102%	96.8%	104%	> 10 µM	> 10 µM	> 10 µM	> 10 µM	0	0	0		0	
CN(C)C(=O)COC(=O)Cc1ccc(OC(=O)c2ccc(NC(=N)N)cc2)cc1 [Camostat mesylate]						99.8%	97.1%	104%	91%	97%	102%	96.2%	97%	100%	103%	104%	107%	97.4%	100%	99.4%	95.9%	105%	88.8%	102%	100%		> 10 µM	> 10 µM	> 10 µM		0	0	0	0	> 10 µM
CCOC(=O)c1ncn2c1CN(C)C(=O)c1cc(N=[N+]=[N-])ccc1-2 [Ro-15-4513]	96.2%	100%	94.6%	99.6%	109%	103%	93.9%	97%	102%	108%	107%	92.2%	102%	99.1%	112%						94.6%	94%	99.3%	97.2%	104%	> 10 µM	> 10 µM	> 10 µM	> 10 µM	0	0	0		0	
CC(C)Oc1cccc(-n2c(CCc3c[nH]c4ccc(Br)cc34)nc3ccccc3c2=O)c1	94.9%	101%	101%	99.1%	73.3%	95.6%	93.9%	92.9%	112%	108%	119%	97.9%	107%	85.9%	92.3%	98.6%	103%	98%	102%	97.8%	102%	101%	100%	99.7%	99.3%		> 10 µM	> 10 µM	> 10 µM	1.2	0	1	0	0	> 10 µM
NC[C@@](O)(c1ccc(Cl)cc1)c1ccc(-c2cn[nH]c2)cc1	93.7%	104%	104%	99.9%	70%	98.5%	99.9%	119%	144%	105%	89.6%	93.2%	111%	93.8%	79.5%	104%	103%	95.5%	94.6%	44.4%	101%	104%	97.5%	70.5%	30.7%		> 10 µM	> 10 µM	1.16 µM	1.3	0	1.4	3.9	7.4	2.36 µM
CCN(CC)C(=O)[C@@]1(c2ccccc2)C[C@H]1CN [milnacipran]	99.9%	87.3%	87.5%	99.8%	98.7%	106%	93.5%	97.9%	95%	97.9%	101%	86.7%	98.9%	107%	90.9%						94.6%	102%	97.8%	102%	98.2%	> 10 µM	> 10 µM	> 10 µM	> 10 µM	0	0	0		0	
CCc1cccc(CC)c1NC(=O)c1nn(C)c2c1CCc1cnc(Nc3ccc(C(=O)NC4CCN(C)CC4)cc3OC(F)(F)F)nc1-2 [NMS-P715]						91.9%	97.7%	98.8%	105%	104%	114%	103%	107%	112%	48.2%	95.9%	99.7%	98.1%	102%	98.7%	104%	88.8%	104%	94.7%	84.7%		> 10 µM	3.99 µM	> 10 µM		0	2.1	0	0.7	> 10 µM
CCCCN(CC)c1nc(C)nc2c1c(C)c(C)n2-c1c(C)cc(C)cc1C [antalarmin]	105%	92.9%	102%	91.4%	70.3%	102%	94.4%	95.6%	99%	104%	99%	97.2%	97.4%	97.8%	77.2%	107%	98.8%	98.1%	99%	101%	96%	92.6%	97.3%	101%	98.2%		> 10 µM	> 10 µM	> 10 µM	2.5	0	1.1	0	0	> 10 µM
Nc1nccc2c1ncn2C1C=C(CO)C(O)C1O (configuration not stated) [3-deazaneplanocin-A]	102%	104%	99.3%	88%	77%	97.4%	97.5%	108%	85.9%	89.9%	105%	106%	86.7%	62.7%	25.7%	105%	97.4%	91.8%	69.3%	57.8%	98.8%	100%	89.1%	56.6%	36.2%	> 10 µM	> 10 µM	0.832 µM	0.47 µM	2	1	8.8	6.3	9.4	
CCOC(=O)OC(C)OC(=O)[C@@H]1N2C(=O)[C@@H](NC(=O)[C@H](N)c3ccccc3)[C@H]2SC1(C)C (some centres not stated) [bacampicillin]	96.3%	94%	95.9%	98%	104%	94.1%	82.4%	102%	103%	110%	97.6%	114%	103%	100%	94.6%						91.8%	96.7%	97.9%	98.1%	98.6%	> 10 µM	> 10 µM	> 10 µM	> 10 µM	0	0	0		0	
CCOc1cc2ncc(C#N)c(Nc3ccc(F)c(Cl)c3)c2cc1NC(=O)/C=C/CN(C)C [pelitinib]	96.9%	96.9%	85.8%	64.7%	51.2%	88.1%	83%	45%	32%	9.5%	107%	99.5%	99%	59.7%	40.2%	99%	98.9%	93.6%	67.7%	5.3%	106%	96.4%	87.3%	22.6%	7.9%		0.0707 µM	0.706 µM	0.334 µM	7.9	21.7	8.1	9.3	15.9	1.38 µM
